Source: ChEMBL document CHEMBL1136370, “Structure-activity relationship on human serum paraoxonase (PON1) using substrate analogues and inhibitors” (Bioorg Med Chem Lett, 2003)

Experiments:
[1] = molecular target: T1, Serum paraoxonase/arylesterase 1 (Homo sapiens, UniProt P27169); assay: Inhibitory activity against human serum paraoxonase (PON1); Not active
[2] = test system: PON1; assay: Time taken for 50% to be consumed by serum PON1 was determined; type: ADME; details: human
[3] = molecular target: T1, Serum paraoxonase/arylesterase 1; assay: Inhibitory activity against human serum paraoxonase (PON1)
[4] = Time taken for 50% to be consumed by serum PON1; NH is Not hydrolysed; type: ADME; details: human

T1 sequence (P27169 whole entry): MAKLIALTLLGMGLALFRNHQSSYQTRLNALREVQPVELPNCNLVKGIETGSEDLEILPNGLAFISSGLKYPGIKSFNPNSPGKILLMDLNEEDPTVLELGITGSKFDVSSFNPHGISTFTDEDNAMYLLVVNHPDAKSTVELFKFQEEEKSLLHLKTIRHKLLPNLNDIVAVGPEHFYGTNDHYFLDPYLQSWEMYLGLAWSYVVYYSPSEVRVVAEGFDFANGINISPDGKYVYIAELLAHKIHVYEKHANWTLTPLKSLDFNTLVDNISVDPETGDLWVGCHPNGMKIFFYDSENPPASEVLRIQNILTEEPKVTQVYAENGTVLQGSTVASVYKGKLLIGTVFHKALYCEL

| Structure (SMILES) | IC50 [1] | half-life [2] | IC50 [3] | T1/2 [4] |
| --- | --- | --- | --- | --- |
| CC(=O)Oc1ccc(N)cc1 | Not Active | 20 min |  |  |
| COc1ccc(OC(C)=O)cc1 | Not Active | 20 min |  |  |
| CCOP(=O)(OCC)Oc1ccc(N)cc1 |  |  | 1.28 mM | Not hydrolysed |
| CC(=O)Oc1ccc([N+](=O)[O-])cc1 [4-NITROPHENYL ACETATE] | Not Active | 3.5 min |  |  |
| CC(=O)Oc1ccccc1 [ACETIC ACID PHENYL ESTER] | Not Active | 1.5 min |  |  |
| CCOP(=O)(OCC)Oc1ccc([N+](=O)[O-])cc1 [PARAOXON] | Not Active | 1460 min |  |  |
| O=P(O)(O)Oc1ccccc1 [PHENYL DIHYDROGEN PHOSPHATE] |  |  | 3.25 mM | Not hydrolysed |
| CCOP(=O)(OCC)Oc1ccccc1 [PHOSPHORIC ACID DIETHYL ESTER PHENYL ESTER] |  |  | 3.27 mM | Not hydrolysed |
| O=[N+]([O-])c1ccc(OP(=O)(O)O)cc1 [p-NITROPHENYLPHOSPHATE] |  |  | 18.5 mM | Not hydrolysed |
